Laboratory results taken from PMC5372246, “Co-production of hydrogen and ethanol from glucose in Escherichia coli by activation of pentose-phosphate pathway through deletion of phosphoglucose isomerase (pgi) and overexpression of glucose-6-phosphate dehydrogenase (zwf) and 6-phosphogluconate dehydrogenase (gnd)” (Biotechnology for Biofuels, 2017).

Legend:
[1] = molecular target: T1, Zwf (ZE), glucose-6-phosphate dehydrogenase (Escherichia coli, UniProt P0AC53); test: inhibition of purified enzyme, NADPH formation at […] nm; type: biochemical
T1 construct: full-length, C-terminal His-tag, Ni-NTA purified from E. coli, 55 kDa on SDS-PAGE
T1 sequence (P0AC53 whole entry): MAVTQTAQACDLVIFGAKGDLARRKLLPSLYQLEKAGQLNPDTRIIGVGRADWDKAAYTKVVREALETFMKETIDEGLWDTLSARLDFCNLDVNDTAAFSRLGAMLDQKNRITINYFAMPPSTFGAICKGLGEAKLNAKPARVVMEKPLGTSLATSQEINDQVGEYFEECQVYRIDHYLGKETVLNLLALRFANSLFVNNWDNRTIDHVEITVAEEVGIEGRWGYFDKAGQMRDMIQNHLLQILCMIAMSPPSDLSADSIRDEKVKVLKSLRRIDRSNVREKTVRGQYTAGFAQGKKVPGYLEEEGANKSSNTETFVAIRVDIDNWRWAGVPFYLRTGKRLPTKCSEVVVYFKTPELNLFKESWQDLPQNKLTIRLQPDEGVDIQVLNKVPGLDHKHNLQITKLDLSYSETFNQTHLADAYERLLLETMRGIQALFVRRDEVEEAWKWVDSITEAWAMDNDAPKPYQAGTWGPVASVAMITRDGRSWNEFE

[2] = molecular target: T2, Gnd (GE), 6-phosphogluconate dehydrogenase (Escherichia coli, UniProt P00350); test: as above; type: biochemical
T2 construct: full-length, C-terminal His-tag, Ni-NTA purified from E. coli, 51 kDa on SDS-PAGE
T2 sequence (P00350 1-468): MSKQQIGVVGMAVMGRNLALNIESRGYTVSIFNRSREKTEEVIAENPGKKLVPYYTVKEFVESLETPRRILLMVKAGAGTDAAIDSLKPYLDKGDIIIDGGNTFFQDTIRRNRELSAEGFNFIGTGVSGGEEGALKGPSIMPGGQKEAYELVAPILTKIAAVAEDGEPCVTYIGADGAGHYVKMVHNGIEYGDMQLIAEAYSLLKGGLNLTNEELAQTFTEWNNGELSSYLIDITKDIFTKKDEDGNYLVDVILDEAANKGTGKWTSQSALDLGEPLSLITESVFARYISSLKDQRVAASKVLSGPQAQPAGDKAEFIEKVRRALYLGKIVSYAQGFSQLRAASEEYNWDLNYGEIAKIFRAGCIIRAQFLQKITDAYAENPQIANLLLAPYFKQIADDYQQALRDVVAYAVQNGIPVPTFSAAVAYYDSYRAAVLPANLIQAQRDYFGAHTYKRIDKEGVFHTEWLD

Ki [1]: ~40 µM
Ki [2]: ~40 µM
Structure (SMILES): NC(=O)C1=CN([C@@H]2O[C@H](COP(=O)(O)OP(=O)(O)OC[C@H]3O[C@@H](n4cnc5c(N)ncnc54)[C@H](OP(=O)(O)O)[C@@H]3O)[C@@H](O)[C@H]2O)C=CC1 [NADPH]
